Measurements published in article PMC9182130 (Molecules, 2022).

Columns and labels:
[1] = human, in vivo
[2] = 4 °C
[3] = human
[4] = human; remark: listed apart in the source

Compound | half-life compared with ST-246 [1] | maximum concentration in plasma compared with ST-246 [1] | dose of ST-246 equivalent to 600 mg of NIOCH-14 according to the area under the curve ([1]; po) [mg] | AUCo-inf ([1]; po, 600 mg) | Cl/F ([1]; po, 600 mg) [L/h] | maximal ST-246 concentration in real-world plasma samples ([1]; po) [ng/mL] | time of stability in autosampler [2] [h] | time of stability at −20 °C [3] [days] | time without degradation at −20 °C [3] | % of nominal concentrations after three consecutive freeze-thaw cycles [4]
O=C(NNC(=O)C1C2C=CC(C3CC23)C1C(=O)O)c1ccc(C(F)(F)F)cc1 (stereo not shown) [NIOCH-14] | longer | lower | ~250 | 8864 ± 4117 | 80 ± 37 | – | – | – | – | –
O=C(NN1C(=O)[C@@H]2[C@@H]3C=C[C@@H]([C@H]4C[C@@H]34)[C@@H]2C1=O)c1ccc(C(F)(F)F)cc1 [ST-246, tecovirimat] | – | – | – | – | – | ≤ 1000 | 48 | ≥ 90 | at least 3 months | 96–115%
